From ChEMBL document CHEMBL1201862, “PubChem BioAssay data set” (2004)
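Grown in 96-well plates, cells were treated for 48 hours with each compound at five concentrations. Insufficient inhibition: endpoint recorded as highest concentration tested. GI50 = concentration required for 50% inhibition of growth.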 Calls of active or inactive are those of the source. No stated cut-off is given here; in the data, active = GI50 up to about 1.1 µM and inactive = higher.

Assays:
Assay in all cases: growth of human tumour cells (NCI), 48 h
Hs-578T = tested on: Hs-578T
SR = tested on: SR
RXF 393 = tested on: RXF 393
KM12 = tested on: KM12
A549 = tested on: A549
LOX IMVI = tested on: LOX IMVI
MDA-MB-231 = tested on: MDA-MB-231
HCT-15 = tested on: HCT-15
RPMI-8226 = tested on: RPMI-8226
T47D = tested on: T47D
SF-268 = tested on: SF-268
HOP-62 = tested on: HOP-62
SNB-75 = tested on: SNB-75
NCI-H23 = tested on: NCI-H23
786-0 = tested on: 786-0
NCI-H460 = tested on: NCI-H460
BT-549 = tested on: BT-549

Row | Structure (SMILES) | GI50 (Hs-578T) | GI50 (SR) | GI50 (RXF 393) | GI50 (KM12) | GI50 (A549) | GI50 (LOX IMVI) | GI50 (MDA-MB-231) | GI50 (HCT-15) | GI50 (RPMI-8226) | GI50 (T47D) | GI50 (SF-268) | GI50 (HOP-62) | GI50 (SNB-75) | GI50 (NCI-H23) | GI50 (786-0) | GI50 (NCI-H460) | GI50 (BT-549)
1 | COc1cc2cc(C(=O)N3CC(COS(C)(=O)=O)c4ccc(O)cc43)[nH]c2c(OC)c1OC (stereo not drawn) | 0.000168 µM (active) | < 0.0001 µM (active) | < 0.0001 µM (active) | 0.000169 µM (active) | < 0.0001 µM (active) | < 0.0001 µM (active) | < 0.0001 µM (active) | < 0.0001 µM | < 0.0001 µM (active) | 0.000552 µM (active) | < 0.0001 µM (active) | < 0.0001 µM (active) | 0.000172 µM (active) | < 0.0001 µM (active) | < 0.0001 µM (active) | – | –
2 | CNNC1=NS(=O)(=O)c2cc(C#N)c(Cl)cc2S1 | > 10 µM (inactive) | – | > 10 µM (inactive) | > 10 µM (inactive) | > 10 µM (inactive) | > 10 µM (inactive) | > 10 µM (inactive) | > 10 µM | > 10 µM (inactive) | > 10 µM (inactive) | > 10 µM (inactive) | > 10 µM (inactive) | > 10 µM (inactive) | > 10 µM (inactive) | > 10 µM (inactive) | > 10 µM (inactive) | > 10 µM (inactive)
3 | CC12CCC3c4cc(Br)c(O)c(Br)c4CCC3C1CCC2O (stereo not drawn) | 17.9 µM (inactive) | – | 12.7 µM (inactive) | 12.9 µM (inactive) | 19.5 µM (inactive) | 18.1 µM (inactive) | 13.3 µM (inactive) | – | – | 26.2 µM (inactive) | 19.8 µM (inactive) | – | 16.3 µM (inactive) | – | 18.7 µM (inactive) | – | 16 µM (inactive)
4 | NC(=O)C(=CN1CC(=O)NC1=S)C(N)=O | – | – | > 100 µM (inactive) | > 100 µM (inactive) | > 100 µM (inactive) | > 100 µM (inactive) | > 100 µM (inactive) | > 100 µM | – | > 100 µM (inactive) | > 100 µM (inactive) | > 100 µM (inactive) | > 100 µM (inactive) | > 100 µM (inactive) | > 100 µM (inactive) | > 100 µM (inactive) | > 100 µM (inactive)
5 | OC1C#CCSCC#C/C=C\1 (stereo not drawn) | 34 µM (inactive) | > 100 µM (inactive) | 18 µM (inactive) | – | – | 45.2 µM (inactive) | > 100 µM (inactive) | > 100 µM | – | – | > 100 µM (inactive) | > 100 µM (inactive) | > 100 µM (inactive) | 80.4 µM (inactive) | 3.58 µM (inactive) | 13.7 µM (inactive) | > 100 µM (inactive)
6 | Nn1c(-c2ccccc2)n[nH]c1=O | 58.3 µM (inactive) | > 100 µM (inactive) | – | > 100 µM (inactive) | > 100 µM (inactive) | > 100 µM (inactive) | > 100 µM (inactive) | > 100 µM | > 100 µM (inactive) | > 100 µM (inactive) | > 100 µM (inactive) | > 100 µM (inactive) | > 100 µM (inactive) | > 100 µM (inactive) | > 100 µM (inactive) | > 100 µM (inactive) | > 100 µM (inactive)
7 | COc1c(C)c(C/C=C(\C)CC/C=C(\C)CC/C=C(\C)CCC=C(C)C)c(OC)c2ccccc12 | > 100 µM (inactive) | 35.7 µM (inactive) | > 100 µM (inactive) | > 100 µM (inactive) | > 100 µM (inactive) | 70 µM (inactive) | > 100 µM (inactive) | > 100 µM | – | – | > 100 µM (inactive) | > 100 µM (inactive) | > 100 µM (inactive) | > 100 µM (inactive) | > 100 µM (inactive) | 39.7 µM (inactive) | > 100 µM (inactive)
8 | CCCSc1ccc2[nH]c(N3C(=O)/C(=C/c4ccc(O)c(OC)c4)N=C3c3ccccc3)cc2c1 | 0.0697 µM (active) | 1.34 µM (inactive) | 18.8 µM (inactive) | 0.0791 µM (active) | – | 7.14 µM (inactive) | – | 4.43 µM | 3.53 µM (inactive) | 22.3 µM (inactive) | 9.16 µM (inactive) | 0.0424 µM (active) | 26.2 µM (inactive) | 16.7 µM (inactive) | 16.3 µM (inactive) | 0.0422 µM (active) | 9.57 µM (inactive)
9 | CC(C)/C(Cl)=N\OC(=O)NNc1ccccc1 | 54.6 µM (inactive) | – | > 100 µM (inactive) | 1.55 µM (inactive) | 0.0721 µM (active) | 12.6 µM (inactive) | 41.9 µM (inactive) | 21.1 µM | < 0.0247 µM (active) | 2.35 µM (inactive) | > 91.4 µM (inactive) | > 43.1 µM (inactive) | > 100 µM (inactive) | 26.8 µM (inactive) | 29 µM (inactive) | < 0.01 µM (active) | 17.5 µM (inactive)
10 | CCOC(=O)CCCn1cc(C(=O)OC)nn1 | > 100 µM (inactive) | – | > 100 µM (inactive) | > 100 µM (inactive) | > 100 µM (inactive) | > 100 µM (inactive) | > 100 µM (inactive) | > 100 µM | – | > 100 µM (inactive) | > 100 µM (inactive) | > 100 µM (inactive) | > 100 µM (inactive) | > 100 µM (inactive) | > 100 µM (inactive) | > 100 µM (inactive) | > 100 µM (inactive)
11 | CCCCCc1c2nc(c(CCCCC)c3ccc([nH]3)c(CCCCC)c3nc(c(CCCCC)c4ccc1[nH]4)C=C3)C=C2 | > 100 µM (inactive) | > 100 µM (inactive) | – | > 100 µM (inactive) | > 100 µM (inactive) | > 100 µM (inactive) | > 100 µM (inactive) | > 100 µM | > 100 µM (inactive) | > 100 µM (inactive) | > 100 µM (inactive) | > 100 µM (inactive) | > 100 µM (inactive) | > 100 µM (inactive) | > 100 µM (inactive) | > 100 µM (inactive) | > 100 µM (inactive)
12 | OCCOCn1cc(Cn2ncc3c(SCc4ccccc4)ncnc32)nn1 | 39.8 µM (inactive) | – | 31.6 µM (inactive) | 32.3 µM (inactive) | 40.3 µM (inactive) | 61.7 µM (inactive) | 88.1 µM (inactive) | 37.4 µM | – | 27.5 µM (inactive) | 75.5 µM (inactive) | 48.1 µM (inactive) | 46 µM (inactive) | 38.3 µM (inactive) | 48.4 µM (inactive) | 38.3 µM (inactive) | 26.9 µM (inactive)
13 | C=CCOC(C)(C)C1=CCC(C)CC1 (stereo not drawn) | > 100 µM (inactive) | > 10 µM (inactive) | > 100 µM (inactive) | > 100 µM (inactive) | > 100 µM (inactive) | – | – | > 100 µM | > 100 µM (inactive) | – | > 100 µM (inactive) | > 100 µM (inactive) | > 100 µM (inactive) | > 100 µM (inactive) | > 100 µM (inactive) | > 100 µM (inactive) | > 100 µM (inactive)
14 | COC(=O)C(=O)C(C(=O)C(=O)Nc1nnc(S)[nH]1)c1nc2ccc([N+](=O)[O-])cc2nc1O (stereo not drawn) | > 100 µM (inactive) | – | > 100 µM (inactive) | > 100 µM (inactive) | > 100 µM (inactive) | > 100 µM (inactive) | > 100 µM (inactive) | > 100 µM | > 100 µM (inactive) | > 100 µM (inactive) | > 100 µM (inactive) | > 100 µM (inactive) | > 100 µM (inactive) | > 100 µM (inactive) | > 100 µM (inactive) | > 100 µM (inactive) | > 100 µM (inactive)
15 | CC1=CC(=O)CC(C)(C)C1/C=C/C(C)=C/C=C/C(C)=C/C=C/C=C(C)/C=C/C=C(C)/C=C/C1=C(C)CC(O)CC1(C)C (stereo not drawn) | 38.9 µM (inactive) | 0.0422 µM (active) | 20.1 µM (inactive) | 31.8 µM (inactive) | – | 31.3 µM (inactive) | 64.3 µM (inactive) | 24.1 µM | 9.31 µM (inactive) | 30.9 µM (inactive) | 50.9 µM (inactive) | 47 µM (inactive) | – | 27.9 µM (inactive) | 22 µM (inactive) | 38.3 µM (inactive) | –
16 | COC(=O)C1C(OC(=O)C(Cl)(c2ccccc2)c2ccccc2)CC2CCC1N2C (stereo not drawn) | – | > 100 µM (inactive) | > 100 µM (inactive) | > 100 µM (inactive) | > 100 µM (inactive) | > 100 µM (inactive) | > 100 µM (inactive) | > 100 µM | > 100 µM (inactive) | > 100 µM (inactive) | > 100 µM (inactive) | > 100 µM (inactive) | > 100 µM (inactive) | > 100 µM (inactive) | > 100 µM (inactive) | – | > 100 µM (inactive)
17 | Cc1ccc(-c2c(C#N)c(S)n(NS(=O)(=O)c3ccccc3)c(=O)c2C#N)cc1 | – | 15.1 µM (inactive) | 41.1 µM (inactive) | 28 µM (inactive) | 39.7 µM (inactive) | 28.5 µM (inactive) | 26.1 µM (inactive) | 21.7 µM | 23.3 µM (inactive) | – | – | – | 42.2 µM (inactive) | 37.8 µM (inactive) | 29.6 µM (inactive) | 15.6 µM (inactive) | 28.2 µM (inactive)
18 | Cc1ccc(S(=O)(=O)NC(=O)Nc2c(S(N)(=O)=O)cc(S(N)(=O)=O)c(Cl)c2Cl)cc1 | > 100 µM (inactive) | > 100 µM (inactive) | – | > 100 µM (inactive) | > 100 µM (inactive) | > 100 µM (inactive) | > 100 µM (inactive) | > 100 µM | > 100 µM (inactive) | – | > 100 µM (inactive) | – | – | > 100 µM (inactive) | > 100 µM (inactive) | > 100 µM (inactive) | > 100 µM (inactive)
19 | O=C1Cc2c([nH]c3c(Br)cccc23)-c2ccccc2N1 | 63.5 µM (inactive) | 19.1 µM (inactive) | – | 60 µM (inactive) | > 100 µM (inactive) | 25.8 µM (inactive) | 33.9 µM (inactive) | 25.1 µM | 32.5 µM (inactive) | > 100 µM (inactive) | 77.1 µM (inactive) | 37.1 µM (inactive) | 33 µM (inactive) | > 100 µM (inactive) | > 100 µM (inactive) | 45.9 µM (inactive) | > 100 µM (inactive)
